“Also recorded” adds a separate entry of the source.
Assays:
Assay type in all cases: cell-based
CRBN-CSNK1A1 interaction = molecular target: T1, CRBN-CSNK1A1 interaction (Homo sapiens, UniProt Q96SW2); assay: MAPPIT inverse assay with alternative CSNK1A1 receptor fusion (leptin receptor extracellular domain, pCLG-CSNK1A1); conditions: inverse configuration, activated with leptin, 0, 0.1, 1, 10 μM, HEK293T
T1 construct: expressed in transfected cells; host or cells: HEK293T
Experimental: Cells were treated with leptin without or with the indicated dose of test compound at 24 hours after transfection. Luciferase activity was measured 24 hours after test compound treatment using the Luciferase Assay System kit (PROMEGA, Madison, Wis.) with an Ensight plate reader (PERKIN ELMER LIFE SCIENCES, Waltham, Mass.). […] Error bars represent standard deviations.

CRBN-SALL4 interaction = CRBN-SALL4 interaction (Homo sapiens, UniProt Q96SW2); assay: MAPPIT forward assay, CRBN receptor fusion + SALL4 gp130 fusion; set-up: MAPPIT chimeric receptor (EPO receptor extracellular domain + signaling-deficient leptin receptor part); expressed in transfected cells; host or cells: HEK293T; conditions: forward configuration; HEK293T cells; EPO; dose-response
Description: (§1) The traditional MAPPIT assay has been used to monitor protein-protein interactions. A bait protein (protein A) is expressed as a fusion protein in which it is genetically fused to an engineered intracellular receptor domain of the leptin receptor, which is itself fused to the extracellular domain of the erythropoietin (Epo) receptor. Binding of Epo ligand to the Epo receptor component results in activation of receptor-associated intracellular JAK2. However, activated JAK2 cannot activate the leptin receptor to trigger STAT3 binding and its phosphorylation because its tyrosine residues, normally phosphorylated by activated JAK2, have been mutated. […] Activation of STAT3 can be monitored by introduction of a STAT3-responsive reporter gene, including a luciferase-encoding gene or a gene encoding a fluorescent marker such as GFP or some other type of Fluorescent Protein (EGFP etc.). […]
(§2) Full size proteins were fused for each of the target/prey proteins tested, except in the case of IKZF1 where isoform 7 was used. […] Luciferase activity was measured 24 hours after test compound treatment using the Luciferase Assay System kit (PROMEGA, Madison, Wis.) with an Ensight plate reader (PERKIN ELMER LIFE SCIENCES, Waltham, Mass.). […]

[1] = molecular target: CRBN-CSNK1A (CK1a) interaction (Homo sapiens, UniProt Q96SW2); assay: MAPPIT forward assay, CRBN receptor fusion + CSNK1A1 gp130 fusion; set-up: MAPPIT chimeric receptor (EPO receptor extracellular domain + signaling-deficient leptin receptor part); expressed in transfected cells; host or cells: HEK293T; conditions: forward configuration; HEK293T cells; EPO; dose-response
Description: as §1, §2

CRBN = molecular target: T2, CRBN (Homo sapiens, UniProt Q96SW2); assay: CRBN inverse MAPPIT competition assay against TMP-lenalidomide hybrid ligand; conditions: 300 nM TMP-lenalidomide; leptin; HEK293T; specificity versus gp130-REM2 control (CTRL)
T2 construct: expressed in transfected cells; host or cells: HEK293T
Description: As in Example 6, HEK293T cells were transfected with a plasmid encoding E. coli Dihydrofolate Reductase (DHFR) fused to the tails of the cytoplasmic domain of a mutated leptin receptor (pCLG-DHFR), a plasmid encoding a CRBN prey fused to the gp130 cytoplasmic domain or a plasmid encoding a gp130-REM2 control fusion that can directly interact with the leptin receptor of the DHFR fusion protein, and the STAT3 responsive pXP2d2-rPAPI-luciferase reporter plasmid—using a standard transfection method, as described (Lievens, et al. “Array MAPPIT: high-throughput interactome analysis in mammalian cells.” Journal of Proteome Research 8.2 (2009): 877-886). […] Data points in FIGS. 10A-B represent the average luciferase activity of triplicate samples derived from cells treated with leptin+test compound for the REM2 control (CTRL) or cells treated with leptin+hybrid ligand+test compound (CRBN) relative to leptin (CTRL) or leptin+hybrid ligand (CRBN) only treated samples (the signals obtained in absence of added test compound for both cases is set at 100% of luciferase activity on y-axis). Error bars represent standard deviations. Curves were fit using 4-parameter nonlinear regression in […] PRISM software.

O=C1CC[C@H](N2Cc3c(OCc4ccc(CN5CCOCC5)cc4)cccc3C2=O)C(=O)N1 [CC-220] was tested, and the “compound-induced CRBN-CSNK1A1 interaction (CSNK1A1 neosubstrate recruitment)” value (CRBN-CSNK1A1 interaction) was “CSNK1A1 neosubstrate recruitment can be detected”, the “compound-induced binding of SALL4 to CRBN (luciferase reporter signal)” value (CRBN-SALL4 interaction) was “only in the inverse assay setup an interaction signal response could be detected” and the “compound-induced binding of CSNK1A (CK1a) to CRBN (luciferase reporter signal)” value [1] was “only in the inverse assay setup an interaction signal response could be detected”. For the same compound, the “competition with TMP-lenalidomide hybrid ligand for binding to CRBN (inhibition of luciferase signal)” value (CRBN) was “specifically inhibit hybrid-ligand induced luciferase reporter activation in a dose-dependent manner; also recorded: competed efficiently”.

Source: US20230026360A1, “DETECTION OF MOLECULAR INTERACTIONS” (Orionis Biosciences, Inc., priority 2019, published 2023)
